Results published in patent US20240351960A1, “METHOD FOR PRODUCING […] THIO[…], AND USE OF COMPOUND IN NITROGEN FERTILIZER FORMULATIONS” (NOVAEM BBTRADE, priority 2021, published 2024).
Where “and” joins values, the source holds several entries; their conditions need not be identical. Equal values may be shown once.

Experiments:
[1] = test system: urease; assay: Volatilization of urea from garden soil treated with urea containing PTA (Example 2); settings: garden soil 1500 g, urea containing 0.1 wt % PTA (as third precipitate, at least 75% PTA), after four days, mass percent; control without PTA 15.4%
Method: Three 1500 g samples of garden soil were prepared, placed in airtight containers. One sample was treated with urea containing no PTA, and two samples with urea containing 0.1 wt % PTA. The amount of urea was the same for each sample. The PTA was the “third precipitate” within the meaning of the object of the present invention. It contained at least 75% by weight of PTA; the indication “0.1% by mass of PTA” refers here to the total mass of the third precipitate and not to the pure PTA which it contains.
Each soil sample was treated with 250 g of water before depositing the urea samples treated or not with PTA on the surface. The volatilization of urea was determined after four days, expressed in mass percent. For this, a current of air was conveyed above each sample using a membrane pump, and this air was led through a citric acid solution which fixes the ammonia by transforming it into ammonium. The citric acid solution was then titrated with a sodium hydroxide solution to calculate the amount of ammonia that had reacted with the citric acid solution. From the quantity of ammonia, the quantity of urea having generated it is calculated.
In this test, the earth was taken from a single location, and the containers were stored side by side in the same room. It can therefore be assumed that each batch was exposed to the same experimental conditions.

[2] = test system: urease; assay: Rate of urea volatilization from agricultural earth treated with urea fertilizer containing PTA (Examples 4 and 5); settings: after four days; for rate of urea volatilization: control 45.81%
Method: Three identical samples of agricultural earth were supplied. A first sample of this earth was treated with a urea fertilizer containing 0.2% by weight of the third precipitate. This precipitate contained at least 75% by weight of PTA; the indication “0.2% by mass of PTA” refers here to the total mass of the third precipitate and not to the pure PTA which it contains. A second sample of this earth was treated with the same quantity of the same fertilizer comprising 0.2% by mass of TPTA (in the sense indicated above for PTA). The third earth sample was treated with the same amount of the same fertilizer containing no urease inhibitor. The rate of urea volatilization was determined after four days of exposure:
Following the test described in Example 4, the dose effect of the PTA was determined by treating identical agricultural earth samples with a urea fertilizer comprising 0.05%, 0.1% and 0.2% by mass of PTA (in the sense indicated above: quantity of third precipitate).

Structure (SMILES): NP(N)(N)=O [PTA, phosphoryl triamide]
- volatilization of urea [1]: 1.5% and 3.05%
- volatilization of urea is reduced by ([2]; 0.2% by mass of PTA, versus control): approximately 75%
- rate of urea volatilization ([2]; urea fertilizer with 0.05% by mass of PTA (quantity of third precipitate)): 34.19%
- rate of urea volatilization ([2]; urea fertilizer with 0.1% by mass of PTA (quantity of third precipitate)): 29.56%
- rate of urea volatilization ([2]; urea fertilizer, printed as 0.02% PTA (quantity of third precipitate)): 11.55%
